Values quoted from earlier work, collected in patent publication US20180027805A1, “ACID HERBICIDE-CONTAINING COMPOSITIONS, PRECURSORS, DERIVATIVES, AND METHODS” (priority 2015, published 2018).

Row | Compound | pKa
1 | O=C(O)CCCOc1ccc(Cl)cc1Cl [2,4-DB] | 4.8
2 | O=C(O)c1cc(Oc2ccc(C(F)(F)F)cc2Cl)ccc1[N+](=O)[O-] [Acifluorfen] | 3.86
3 | N#Cc1cc(Br)c(O)c(Br)c1 [Bromoxynil] | 4.06
4 | COc1c(Cl)ccc(Cl)c1C(=O)O [Dicamba, 3,6-dichloro-O-anisic acid] | 1.87
5 | CC(Oc1ccc(Oc2ccc(Cl)cc2Cl)cc1)C(=O)O (centres unmarked) [Diclofop] | 3.57
6 | C[C@@H](Oc1ccc(Oc2ccc(C(F)(F)F)cn2)cc1)C(=O)O [Fluazifop-p] | 2.98
7 | CC(Oc1ccc(Oc2ncc(C(F)(F)F)cc2Cl)cc1)C(=O)O (centres unmarked) [Haloxyfop] | 4.33
8 | CC(C)C1(C)N=C(c2nc3ccccc3cc2C(=O)O)NC1=O (centres unmarked) [Imazaquin] | 3.8
9 | Nc1c(Cl)c(Cl)nc(C(=O)O)c1Cl [Picloram] | 2.3
10 | O=C(O)COc1nc(Cl)c(Cl)cc1Cl [Triclopyr, 3,5,6-trichloro-2-pyridyloxyacetic acid] | 2.68
11 | Imazamethbenz | 2.9
